The source of these data is paper PMC9465256, “Discovering monoacylglycerol lipase inhibitors by a combination of fluorogenic substrate assay and activity-based protein profiling” (Frontiers in Pharmacology, 2022).

Format in all cases: biochemical
For one test, the target named is T1, human MAGL (Homo sapiens, UniProt Q99685).
T1 construct: expressed in transfected cells; host or cells: HEK293T (transient transfection; membrane fraction)
T1 sequence (Q99685 1-303): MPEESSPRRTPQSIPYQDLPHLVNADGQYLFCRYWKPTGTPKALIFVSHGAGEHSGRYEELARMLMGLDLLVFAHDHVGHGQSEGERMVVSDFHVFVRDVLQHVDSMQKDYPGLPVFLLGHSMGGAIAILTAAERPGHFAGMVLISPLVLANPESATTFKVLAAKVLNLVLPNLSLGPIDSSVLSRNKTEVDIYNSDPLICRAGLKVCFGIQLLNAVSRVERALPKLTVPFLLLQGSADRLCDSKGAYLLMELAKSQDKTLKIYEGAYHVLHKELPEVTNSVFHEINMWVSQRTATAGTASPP
As to the kind of experiment: MAGL activity assay (AA-HNA fluorogenic substrate). To be noted: read-out: MAGL Inhibition (%); for activity / activity at 100 µM: 100 µM, AA-HNA substrate assay, Supplementary Table 1. On the procedure: (§1) HEK293T cells were cultured at 37°C under 5% CO2 in a DMEM medium with stable glutamine and phenolred, containing 10% fetal bovine serum (FBS, Gibco), penicillin, and streptomycin. The cells were passaged every 2–3 days by resuspension in the medium at ∼90% confluence. The membranes used in this study were prepared from transiently transfected HEK293T cells. Briefly, 1 day prior to transfection, ∼10^7 cells were seeded in 15 cm plates, and then the cells were transfected by the addition of a mixture of polyethyleneimine and plasmid DNA (3:1, 60, and 20 µg) in 2 ml of medium (without serum). Of note, the empty pcDNA3.1 vector was used in the Mock-control. After 24 h, the medium was removed and the cells were refreshed with fresh medium. After 72 h, the cells were harvested by suspending in 20 ml of medium, and the supernatant was removed by centrifugation for 10 min at 1,000 rpm. The cell pellet was flash frozen in liquid nitrogen and stored at −80°C until use. Subsequently, the cell pellets were suspended in lysis buffer (30 mM Tirs, pH 7.5, 1 mM MgCl2, 25 U/ml Benzonase), which was homogenized by sonication (3 × 10 bursts) and incubated for 30 min on ice. The membrane fractions overexpressing MAGL/ABHD6/ABHD12 were separated by ultracentrifuge (100,000 g, 30 min, 4 C). The protein concentration was determined with a Qubit protein assay (Invitrogen). The protein samples were quickly frozen in liquid nitrogen and stored at −80 C until use.
The MAGL activity assay is based on the hydrolysis of 2-arachidonoylglycerol-based fluorogenic substrate by MAGL-overexpressing membrane preparations from transiently transfected HEK293T cells. In brief, the reactions were performed in HEPES buffer (40 mM HEPES, pH 7.5, 0.1 mg/ml BSA) in black, flat bottom 96-well plates. […] After the incubation of the inhibitor-protein complex for 30 min, 10 µl of the fluorogenic substrate (AA-HNA, 200 µM) was added and fluorescence was measured in 1 min intervals for 30 min on a plate reader (BioTek). […] All the measurements were performed in N = 2, n = 2 for inhibitors and N = 2, n = 4 for controls with Z′ value ≥0.6. The slope is determined in 5–15 min for all the experiments.

A further test concerns the target T2, human ABHD6 (Homo sapiens, UniProt Q9BV23).
T2 construct: expressed in transfected cells; host or cells: HEK293T (transient transfection; membrane fraction)
T2 sequence (Q9BV23 1-337): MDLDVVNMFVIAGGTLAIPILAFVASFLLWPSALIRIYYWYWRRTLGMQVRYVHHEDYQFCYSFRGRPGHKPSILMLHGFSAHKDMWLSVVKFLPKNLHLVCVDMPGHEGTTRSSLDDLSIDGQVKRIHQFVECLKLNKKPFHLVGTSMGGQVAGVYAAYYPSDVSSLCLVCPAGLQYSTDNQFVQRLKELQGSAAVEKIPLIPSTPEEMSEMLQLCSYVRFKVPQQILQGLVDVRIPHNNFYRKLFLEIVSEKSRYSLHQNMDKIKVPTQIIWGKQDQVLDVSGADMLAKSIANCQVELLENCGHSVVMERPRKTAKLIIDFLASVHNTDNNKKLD
As to the kind of experiment: ABHD6 activity assay (AA-HNA fluorogenic substrate). Conditions: for activity / activity at 100 µM: 100 µM, AA-HNA substrate assay, Supplementary Table 2. On the procedure: as §1
The MAGL activity assay is based on the hydrolysis of 2-arachidonoylglycerol-based fluorogenic substrate by MAGL-overexpressing membrane preparations from transiently transfected HEK293T cells. In brief, the reactions were performed in HEPES buffer (40 mM HEPES, pH 7.5, 0.1 mg/ml BSA) in black, flat bottom 96-well plates. The final protein concentration of membrane fractions from overexpressing human MAGL HEK293T cells was 12.5 μg/ml 5 µl of inhibitors were added from×40 concentrated DMSO stocks in the 96-well plate containing 145 µl assay buffer, followed by the addition of 40 µl of the protein (12.5 μg/ml). After the incubation of the inhibitor-protein complex for 30 min, 10 µl of the fluorogenic substrate (AA-HNA, 200 µM) was added and fluorescence was measured in 1 min intervals for 30 min on a plate reader (BioTek). Final assay concentrations: 12.5 μg/ml MAGL, […], and […] in the total volume of 200 µl. All the measurements were performed in N = 2, n = 2 for inhibitors and N = 2, n = 4 for controls with Z′ value ≥0.6. The slope is determined in 5–15 min for all the experiments.
The ABHD6 activity assay is based on the same principle as the MAGL activity assay described earlier, but with human ABHD6 overexpressing membrane preparations at a final protein concentration of 50 μg/ml and 200 µM AA-HNA. Other conditions are the same as those of the MAGL activity assay.

The target in a further test is T3, human ABHD12 (Homo sapiens, UniProt Q8N2K0).
T3 construct: expressed in transfected cells; host or cells: HEK293T (transient transfection; membrane fraction)
T3 sequence (Q8N2K0 1-398): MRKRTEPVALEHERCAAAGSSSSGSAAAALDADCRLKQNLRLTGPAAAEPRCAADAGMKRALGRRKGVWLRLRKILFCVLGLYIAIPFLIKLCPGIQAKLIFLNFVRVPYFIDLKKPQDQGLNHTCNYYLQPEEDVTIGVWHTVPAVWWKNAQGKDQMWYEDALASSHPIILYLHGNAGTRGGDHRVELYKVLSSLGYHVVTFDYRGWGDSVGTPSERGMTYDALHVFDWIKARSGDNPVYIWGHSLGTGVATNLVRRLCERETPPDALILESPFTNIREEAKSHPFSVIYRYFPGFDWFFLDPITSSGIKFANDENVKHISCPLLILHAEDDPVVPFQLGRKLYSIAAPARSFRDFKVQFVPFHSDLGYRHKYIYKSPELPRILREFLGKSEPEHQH
Description: ABHD12 activity by competitive ABPP with FP-TAMRA. To be noted: read-out: ABHD12 Inhibition (%); for activity / activity at 100 µM: 100 µM compound, competitive ABPP with probe FP-TAMRA (250 nM). How it is done:
as §1
The ABHD12 activity assay is based on competitive activity-based protein profiling (ABPP) with human ABHD12 overexpressing membrane fractions. Briefly, the membrane proteome (1 mg/ml, 20 µl) was incubated at room temperature with 0.5 µl DMSO (vehicle) or inhibitor for 30 min. Subsequently, the samples were treated with the activity-based probe FP-TAMRA (250 nM, final concentration) for 20 min. The reactions were then quenched by 10 µl sample buffer (×4) (final concentrations: 60 mM Tris, pH 6.8, 2% (w/v) SDS, 10% (v/v) glycerol, 5% (v/v) β-mercaptoethanol, 0.01% (v/v) bromophenol blue). The samples were directly loaded and resolved on SDS-PAGE gel (10% acrylamide), which were then scanned using a ChemiDoc MP system (Cy3 settings, BioRad).

Structures can show the parent of a compound that is named as a salt.

With `C[N+](C)(C)CC(O)CC(=O)O` (racemic) [compound 27, DL-Carnitine HCl], the activity at human MAGL amounted to 97.6%; at human ABHD6 (read-out: ABHD6 Inhibition (%)) it was 88.9%; at human ABHD12, 76.6%.

As for `O=C(c1cccc(-c2ccc(-c3cn(C(=O)N4CCCCC4c4ccccc4)nn3)cc2)c1)N1CCCCC1` (stereo not shown) [KT185, reference compound], the “effect on fluorescent signal of AA-HNA hydrolysis by ABHD6” value on human ABHD6 (10 µM) is given as “blocked”.

Consider `O=C(O[C@@H]1Cc2c(O)cc(O)cc2O[C@@H]1c1cc(O)c(O)c(O)c1)c1cc(O)c(O)c(O)c1` [compound 2, (-)-Epigallocatechin Gallate], for which the activity at 100 µM on human MAGL came to 38.9%; on human ABHD6 (read-out: ABHD6 Inhibition (%)), 95%; on human ABHD12, 59.6%.

Consider `CC(=O)c1c(O)c(C)c(O)c2c1OC1=CC(=O)C(C(C)=O)C(=O)C12C` [compound 3, D-Usnic Acid], for which the activity was determined as 85.6% on human MAGL, 97.9% at human ABHD6 (read-out: ABHD6 Inhibition (%)) and 68.8% at human ABHD12.

With `O=C(O)CCCc1c[nH]c2ccccc12` [compound 4, 3-Indolebutyric acid], the results for the activity at 100 µM on human MAGL, on human ABHD6 (read-out: ABHD6 Inhibition (%)) and at human ABHD12 were 85.4%, 97.2% and 77.2%, respectively.

With `Cc1cc(=O)oc2cc(O)ccc12` [compound 5, 4-Methylumbelliferone], the results for the activity at 100 µM on human MAGL, on human ABHD6 (read-out: ABHD6 Inhibition (%)) and at human ABHD12 were 90.1%, 92.5% and 71%, respectively.

For the compound `N#C[C@H](O[C@@H]1O[C@H](CO[C@@H]2O[C@H](CO)[C@@H](O)[C@H](O)[C@H]2O)[C@@H](O)[C@H](O)[C@H]1O)c1ccccc1` [compound 7, Amygdalin], the activity at 100 µM at human MAGL was 75.9%; at human ABHD6 (read-out: ABHD6 Inhibition (%)), 90.2%; at human ABHD12, 69.8%.

Take `C=C1CC[C@@H]2[C@](C)(CO)[C@H](O)CC[C@@]2(C)[C@@H]1C/C=C1/C(=O)OC[C@H]1O` [compound 8, Andrographolide]: the activity at 100 µM is 83.5% at human MAGL, 81.8% on human ABHD6 (read-out: ABHD6 Inhibition (%)) and 61.9% at human ABHD12.

For the compound `OC[C@H]1O[C@@H](Oc2ccc(O)cc2)[C@H](O)[C@@H](O)[C@@H]1O` [compound 10, Arbutin], the activity at 100 µM at human MAGL was 84.2%; at human ABHD6 (read-out: ABHD6 Inhibition (%)), 83.2%; on human ABHD12 it was 66.6%.

For the compound `C[C@H]1[C@H](OC(=O)CCC(=O)O)O[C@@H]2O[C@@]3(C)CC[C@H]4[C@H](C)CC[C@@H]1[C@@]24OO3` [compound 11, Artesunate], the activity at 100 µM was determined as 106% at human MAGL, 46.5% on human ABHD6 (read-out: ABHD6 Inhibition (%)) and 56.2% at human ABHD12.

For the compound `C[C@H]1[C@H](C)CC[C@]2(C(=O)O)CC[C@]3(C)C(=CC[C@@H]4[C@@]5(C)C[C@@H](O)[C@H](O)[C@@](C)(CO)[C@@H]5CC[C@]43C)[C@H]12` [compound 12, Asiatic acid], the activity at 100 µM was determined as 86% on human MAGL, 95.6% on human ABHD6 (read-out: ABHD6 Inhibition (%)) and 72.4% on human ABHD12.

For `O=[N+]([O-])c1ncc[nH]1` [compound 13, Azomycin], the activity at 100 µM at human MAGL was found to be 89.9%; on human ABHD6 (read-out: ABHD6 Inhibition (%)) it was 112%; on human ABHD12 it was 87.7%.

Turning to `O=c1cc(-c2ccccc2)oc2cc(O)c(O)c(O)c12` [compound 14, Baicalein], the activity at 100 µM at human MAGL was 64.3%; at human ABHD6 (read-out: ABHD6 Inhibition (%)) it was 131%; at human ABHD12, 82.7%.

As to `O=C(O)[C@H]1O[C@@H](Oc2cc3oc(-c4ccccc4)cc(=O)c3c(O)c2O)[C@H](O)[C@@H](O)[C@@H]1O` [compound 15, Baicalin], the figures for the activity at 100 µM at human MAGL, on human ABHD6 (read-out: ABHD6 Inhibition (%)) and on human ABHD12 were 80.3%, 121% and 85.9%, respectively.

`COc1c(O)cc2c(c1O)[C@@H]1O[C@H](CO)[C@@H](O)[C@H](O)[C@H]1OC2=O` [compound 16, Bergenin]: the results for the activity at 100 µM on human MAGL, at human ABHD6 (read-out: ABHD6 Inhibition (%)) and on human ABHD12 were 124%, 110% and 88%, respectively.

On to `CC(C)(C)[C@]1(O)CC2OC(=O)CC23C(=O)OC2OC(=O)[C@H](O)C231` (stereo partly shown) [compound 18, Bilobalide], for which the percent inhibition at 100 µM at human MAGL was 97.8%; at human ABHD12 it was 83%. For the same compound, at human ABHD6 (read-out: ABHD6 Inhibition (%)), the percent inhibition of ABHD6 at 100 µM amounted to 99.5%.

Take `O=C(O)/C=C/c1ccc(O)c(O)c1` [compound 19, Caffeic Acid]: the activity came to 90.1% at human MAGL, 108% at human ABHD6 (read-out: ABHD6 Inhibition (%)) and 83.7% on human ABHD12.

`O=C(/C=C/c1ccc(O)c(O)c1)O[C@@H]1C[C@](O)(C(=O)O)C[C@@H](O)[C@H]1O` [compound 20, Chlorogenic acid]: the activity at 100 µM came to 95.2% on human MAGL, 102% at human ABHD6 (read-out: ABHD6 Inhibition (%)) and 78.1% at human ABHD12.

Turning to `C=C[C@H]1CN2CC[C@H]1C[C@H]2[C@H](O)c1ccnc2ccccc12` [compound 21, Cinchonidine], the figures for the activity at 100 µM on human MAGL, at human ABHD6 (read-out: ABHD6 Inhibition (%)) and at human ABHD12 were 59.3%, 109% and 77.6%, respectively.

As to `O=c1cc(-c2ccccc2)oc2cc(O)cc(O)c12` [compound 22, Chrysin], the activity at 100 µM on human MAGL came to 93.2%; at human ABHD6 (read-out: ABHD6 Inhibition (%)) it was 105%; at human ABHD12, 84%.
